Measured values taken from ChEMBL document CHEMBL2203033, “Design and synthesis of novel DFG-out RAF/vascular endothelial growth factor receptor 2 (VEGFR2) inhibitors: 3. Evaluation of 5-amino-linked thiazolo[5,4-d]pyrimidine and thiazolo[5,4-b]pyridine derivatives” (Bioorg Med Chem, 2012).
Values belong to the molecule of their own block, whether it stands above or below them. Calls of active or inactive are those of the source. No cut-off for these calls is given here.

What was measured:
[1] = Thermodynamic solubility of the compound in Japanese pharmacopoeia 2nd fluid at pH 6.8 presence of 20 mmol/L of bile acid; type: physicochemical; conditions: read-out: Therm_solubility
[2] = biological target: T1, Serine/threonine-protein kinase B-raf (Homo sapiens, UniProt P15056, V600E); test: Inhibition of BRAF V600E mutant in human HT-29 cells assessed as reduction of […] phosphorylation; type: cell-based
T1 sequence (P15056 2-766 V600E limits assumed): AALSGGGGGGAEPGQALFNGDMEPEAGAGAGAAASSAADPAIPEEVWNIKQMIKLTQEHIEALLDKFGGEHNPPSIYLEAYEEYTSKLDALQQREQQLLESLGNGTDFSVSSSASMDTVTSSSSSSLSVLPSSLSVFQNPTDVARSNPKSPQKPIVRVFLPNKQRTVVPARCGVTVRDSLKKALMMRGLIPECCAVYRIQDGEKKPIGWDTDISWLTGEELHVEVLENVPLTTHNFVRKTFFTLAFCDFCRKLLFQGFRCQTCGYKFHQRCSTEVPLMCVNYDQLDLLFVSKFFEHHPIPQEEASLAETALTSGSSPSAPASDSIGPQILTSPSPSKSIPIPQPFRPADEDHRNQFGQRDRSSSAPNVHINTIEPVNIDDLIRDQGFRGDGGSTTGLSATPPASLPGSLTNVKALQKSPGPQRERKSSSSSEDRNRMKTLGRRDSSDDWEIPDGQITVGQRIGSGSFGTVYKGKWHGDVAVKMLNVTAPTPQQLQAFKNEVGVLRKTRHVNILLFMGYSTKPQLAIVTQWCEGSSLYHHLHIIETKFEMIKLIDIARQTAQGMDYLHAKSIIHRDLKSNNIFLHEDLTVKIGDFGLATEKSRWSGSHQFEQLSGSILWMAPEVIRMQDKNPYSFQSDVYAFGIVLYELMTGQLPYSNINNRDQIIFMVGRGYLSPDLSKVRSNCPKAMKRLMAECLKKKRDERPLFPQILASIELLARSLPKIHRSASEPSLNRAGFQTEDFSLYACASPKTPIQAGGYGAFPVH

[3] = biological target: Vascular endothelial growth factor receptor 2 (Homo sapiens, UniProt P35968); test: Inhibition of VEGFR2
Sequence of Vascular endothelial growth factor receptor 2 (P35968 whole entry): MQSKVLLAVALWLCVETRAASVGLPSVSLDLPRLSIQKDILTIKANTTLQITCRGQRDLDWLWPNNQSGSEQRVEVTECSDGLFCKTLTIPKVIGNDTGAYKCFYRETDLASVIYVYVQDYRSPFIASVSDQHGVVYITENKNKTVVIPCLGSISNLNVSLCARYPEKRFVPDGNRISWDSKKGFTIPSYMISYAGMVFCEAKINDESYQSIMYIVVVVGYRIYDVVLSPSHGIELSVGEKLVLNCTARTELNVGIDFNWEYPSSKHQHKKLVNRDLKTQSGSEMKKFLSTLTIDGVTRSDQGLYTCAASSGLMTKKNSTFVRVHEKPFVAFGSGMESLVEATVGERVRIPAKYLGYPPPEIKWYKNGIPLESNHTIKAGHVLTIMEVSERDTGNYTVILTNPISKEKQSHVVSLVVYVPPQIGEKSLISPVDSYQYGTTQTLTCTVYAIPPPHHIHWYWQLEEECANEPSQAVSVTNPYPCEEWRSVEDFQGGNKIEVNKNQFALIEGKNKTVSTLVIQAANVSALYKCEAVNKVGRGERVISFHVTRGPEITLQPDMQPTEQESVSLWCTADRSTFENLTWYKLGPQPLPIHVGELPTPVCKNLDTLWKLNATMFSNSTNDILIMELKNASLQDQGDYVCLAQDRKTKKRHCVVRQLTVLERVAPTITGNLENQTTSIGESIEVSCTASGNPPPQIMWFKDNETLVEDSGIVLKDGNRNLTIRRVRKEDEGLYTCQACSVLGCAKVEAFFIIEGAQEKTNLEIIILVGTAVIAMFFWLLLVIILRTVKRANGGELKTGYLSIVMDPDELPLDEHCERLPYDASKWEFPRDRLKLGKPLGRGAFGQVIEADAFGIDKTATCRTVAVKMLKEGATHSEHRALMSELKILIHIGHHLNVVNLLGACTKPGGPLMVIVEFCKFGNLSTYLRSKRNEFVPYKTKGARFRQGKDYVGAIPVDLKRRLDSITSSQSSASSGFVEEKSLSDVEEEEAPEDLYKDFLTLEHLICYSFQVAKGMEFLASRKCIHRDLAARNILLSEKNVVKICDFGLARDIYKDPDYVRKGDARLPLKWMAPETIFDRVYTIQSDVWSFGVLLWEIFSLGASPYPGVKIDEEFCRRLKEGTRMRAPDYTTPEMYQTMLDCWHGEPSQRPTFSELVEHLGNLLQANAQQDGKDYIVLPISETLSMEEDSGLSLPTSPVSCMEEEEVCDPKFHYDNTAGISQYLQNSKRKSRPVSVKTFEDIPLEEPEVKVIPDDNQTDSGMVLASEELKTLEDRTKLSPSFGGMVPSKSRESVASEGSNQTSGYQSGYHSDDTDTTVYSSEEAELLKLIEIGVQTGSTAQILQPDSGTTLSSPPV

[4] = biological target: T1, Serine/threonine-protein kinase B-raf; test: Inhibition of recombinant BRAF V600E mutant using […] and [gamma-32P]ATP as substrate after 30 mins by scintillation counting
[5] = Intrinsic clearance in human liver microsomes at 1 umol/L after 20 mins in presence of NADPH; type: ADME, Microsome; conditions: read-out: CLH
Rattus norvegicus [6] = test: Inhibition of BRAF in human HT-29 cells xenografted nude rat tumor assessed as reduction of ERK phosphorylation at 25 mg/kg, po; type: functional, organism-based; parameters: dose 25 mg/kg
[7] = Intrinsic clearance in mouse liver microsomes at 1 umol/L after 20 mins in presence of NADPH; type: ADME, Microsome; conditions: read-out: CLH
Rattus norvegicus [8] = test: Toxicity in human HT-29 cells xenografted nude rat at 25 mg/kg, po qd for 2 weeks; type: organism-based; parameters: dose 25 mg/kg, route oral; conditions: in vivo, 336 h
[9] = Cmax in rat at 25 mg/kg, po; type: ADME, organism-based; parameters: dose 25 mg/kg, route oral; conditions: in vivo
[10] = Mean residence time in rat at 1 mg/kg, iv; type: ADME, organism-based; parameters: dose 1 mg/kg, route intravenous; conditions: in vivo
[11] = Mean residence time in rat at 25 mg/kg, po; type: ADME, organism-based; parameters: dose 25 mg/kg, route oral; conditions: in vivo
[12] = Volume of distribution at steady state in rat at 1 mg/kg, iv; type: ADME, organism-based; parameters: dose 1 mg/kg, route intravenous; conditions: in vivo, read-out: Vdss
[13] = Oral bioavailability in rat at 25 mg/kg; type: ADME, organism-based; conditions: in vivo
[14] = AUC (0 to 24 hrs) in rat at 25 mg/kg, po; type: ADME, organism-based; parameters: time < 24 hr, dose 25 mg/kg, route oral; conditions: plasma
HT-29 = test: Antitumor activity against human HT-29 cells xenografted in nude rat assessed as tumor regression at 25 mg/kg, po qd for 2 weeks; type: functional
[15] = Total clearance in rat at 1 mg/kg, iv; type: ADME, organism-based; parameters: dose 1 mg/kg, route intravenous; conditions: in vivo
[16] = AUC (0 to 24 hrs) in rat at 1 mg/kg, iv; type: ADME, organism-based; parameters: time < 24 hr, dose 1 mg/kg, route intravenous; conditions: plasma
[17] = biological target: Glycogen synthase kinase-3 beta (Homo sapiens, UniProt P49841); test: Inhibition of GSK3beta
[18] = biological target: Platelet-derived growth factor receptor alpha (Homo sapiens, UniProt P16234); test: Inhibition of PDGFRalpha
[19] = biological target: Dual specificity mitogen-activated protein kinase kinase 1 (Homo sapiens, UniProt Q02750)
Sequence of Dual specificity mitogen-activated protein kinase kinase 1 (Q02750 whole entry): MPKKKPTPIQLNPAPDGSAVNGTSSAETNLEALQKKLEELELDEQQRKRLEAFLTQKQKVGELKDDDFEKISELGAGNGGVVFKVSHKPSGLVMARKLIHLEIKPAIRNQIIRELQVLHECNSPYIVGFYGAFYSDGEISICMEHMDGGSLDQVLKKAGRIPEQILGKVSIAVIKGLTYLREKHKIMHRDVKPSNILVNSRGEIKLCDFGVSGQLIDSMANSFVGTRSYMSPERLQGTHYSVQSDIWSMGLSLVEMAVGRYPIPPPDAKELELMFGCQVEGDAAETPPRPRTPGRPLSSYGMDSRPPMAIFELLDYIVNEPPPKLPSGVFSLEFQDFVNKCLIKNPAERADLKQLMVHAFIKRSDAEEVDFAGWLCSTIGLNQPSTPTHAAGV

Aurora kinase B = Aurora kinase B (Homo sapiens, UniProt Q96GD4); test: Inhibition of aurora B
[20] = biological target: Platelet-derived growth factor receptor beta (Homo sapiens, UniProt P09619); test: Inhibition of PDGFRbeta
[21] = biological target: Receptor tyrosine-protein kinase erbB-2 (Homo sapiens, UniProt P04626); test: Inhibition of HER2
[22] = biological target: RAF proto-oncogene serine/threonine-protein kinase (Homo sapiens, UniProt P04049); test: Inhibition of c-RAF
[23] = biological target: Serine/threonine-protein kinase Chk1 (Homo sapiens, UniProt O14757); test: Inhibition of CHK1
[24] = biological target: Proto-oncogene tyrosine-protein kinase Src (Homo sapiens, UniProt P12931)
[25] = biological target: Mast/stem cell growth factor receptor Kit (Homo sapiens, UniProt P10721); test: Inhibition of c-Kit
[26] = biological target: Fibroblast growth factor receptor 3 (Homo sapiens, UniProt P22607); test: Inhibition of FGFR3
[27] = biological target: Hepatocyte growth factor receptor (Homo sapiens, UniProt P08581)
Sequence of Hepatocyte growth factor receptor (P08581 whole entry): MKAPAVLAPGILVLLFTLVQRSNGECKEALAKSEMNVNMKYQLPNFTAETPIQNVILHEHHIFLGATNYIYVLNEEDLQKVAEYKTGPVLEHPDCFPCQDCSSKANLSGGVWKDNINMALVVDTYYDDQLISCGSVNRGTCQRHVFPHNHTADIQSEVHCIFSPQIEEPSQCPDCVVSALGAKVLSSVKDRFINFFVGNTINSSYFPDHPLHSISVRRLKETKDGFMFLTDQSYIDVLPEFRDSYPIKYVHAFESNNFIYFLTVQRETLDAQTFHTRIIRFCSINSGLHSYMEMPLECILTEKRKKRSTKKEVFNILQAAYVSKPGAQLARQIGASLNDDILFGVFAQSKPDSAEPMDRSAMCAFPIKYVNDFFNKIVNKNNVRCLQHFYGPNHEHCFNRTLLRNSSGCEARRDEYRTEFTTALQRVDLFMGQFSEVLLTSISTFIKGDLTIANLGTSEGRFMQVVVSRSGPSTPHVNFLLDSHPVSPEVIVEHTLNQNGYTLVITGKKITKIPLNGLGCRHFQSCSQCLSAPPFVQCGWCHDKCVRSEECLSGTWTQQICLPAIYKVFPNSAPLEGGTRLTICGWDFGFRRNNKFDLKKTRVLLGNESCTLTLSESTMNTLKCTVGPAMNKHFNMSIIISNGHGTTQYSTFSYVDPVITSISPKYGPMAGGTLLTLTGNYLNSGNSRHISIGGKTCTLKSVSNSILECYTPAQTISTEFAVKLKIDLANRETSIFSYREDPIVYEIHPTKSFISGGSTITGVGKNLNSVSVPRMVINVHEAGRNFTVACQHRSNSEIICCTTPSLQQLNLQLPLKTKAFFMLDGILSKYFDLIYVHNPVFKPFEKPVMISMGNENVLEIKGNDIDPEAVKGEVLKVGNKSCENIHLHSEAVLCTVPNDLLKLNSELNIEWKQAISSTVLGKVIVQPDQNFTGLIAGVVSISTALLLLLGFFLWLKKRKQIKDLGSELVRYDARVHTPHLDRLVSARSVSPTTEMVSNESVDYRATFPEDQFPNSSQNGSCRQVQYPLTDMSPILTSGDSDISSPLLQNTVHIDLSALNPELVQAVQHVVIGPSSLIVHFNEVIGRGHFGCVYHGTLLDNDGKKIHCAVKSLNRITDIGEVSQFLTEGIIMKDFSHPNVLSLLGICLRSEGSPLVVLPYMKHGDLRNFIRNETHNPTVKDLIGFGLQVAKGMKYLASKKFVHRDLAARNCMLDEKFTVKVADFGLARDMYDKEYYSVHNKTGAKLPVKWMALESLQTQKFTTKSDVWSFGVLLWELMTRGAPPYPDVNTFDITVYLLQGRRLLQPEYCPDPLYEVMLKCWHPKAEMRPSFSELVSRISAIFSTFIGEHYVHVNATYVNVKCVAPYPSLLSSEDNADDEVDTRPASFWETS

[28] = biological target: Mitogen-activated protein kinase kinase kinase 1 (Homo sapiens, UniProt Q13233); test: Inhibition of MEKK1
[29] = biological target: Protein kinase C theta type (Homo sapiens, UniProt Q04759); test: Inhibition of PKCtheta
[30] = biological target: Inhibitor of nuclear factor kappa-B kinase subunit beta (Homo sapiens, UniProt O14920); test: Inhibition of IKKbeta
[31] = biological target: Cyclin-dependent kinase 1 (Homo sapiens, UniProt P06493); test: Inhibition of CDK1
Sequence of Cyclin-dependent kinase 1 (P06493 whole entry): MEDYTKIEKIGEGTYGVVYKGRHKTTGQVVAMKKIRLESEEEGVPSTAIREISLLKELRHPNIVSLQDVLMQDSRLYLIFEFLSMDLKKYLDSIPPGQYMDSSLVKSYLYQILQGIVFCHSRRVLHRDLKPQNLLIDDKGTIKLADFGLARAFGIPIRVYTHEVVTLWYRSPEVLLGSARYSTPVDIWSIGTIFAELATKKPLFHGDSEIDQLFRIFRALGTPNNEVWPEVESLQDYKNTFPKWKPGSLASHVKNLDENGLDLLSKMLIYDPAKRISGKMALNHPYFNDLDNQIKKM

[32] = biological target: Cyclin-dependent kinase 2 (Homo sapiens, UniProt P24941); test: Inhibition of CDK2
[33] = biological target: Mitogen-activated protein kinase 8 (Homo sapiens, UniProt P45983); test: Inhibition of JNK1
Sequence of Mitogen-activated protein kinase 8 (P45983 whole entry): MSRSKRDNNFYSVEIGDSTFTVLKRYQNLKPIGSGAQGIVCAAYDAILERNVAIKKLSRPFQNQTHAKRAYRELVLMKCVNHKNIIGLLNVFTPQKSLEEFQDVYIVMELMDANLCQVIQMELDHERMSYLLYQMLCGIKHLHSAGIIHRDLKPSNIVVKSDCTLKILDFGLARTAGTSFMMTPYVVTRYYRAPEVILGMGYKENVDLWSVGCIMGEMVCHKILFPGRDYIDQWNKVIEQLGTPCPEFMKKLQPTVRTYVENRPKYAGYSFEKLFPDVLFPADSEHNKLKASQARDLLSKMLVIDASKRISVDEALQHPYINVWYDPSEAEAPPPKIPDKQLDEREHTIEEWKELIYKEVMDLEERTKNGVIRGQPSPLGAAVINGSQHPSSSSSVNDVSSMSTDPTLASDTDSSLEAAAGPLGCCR

Insulin receptor = Insulin receptor (Homo sapiens, UniProt P06213); test: Inhibition of IR
Angiopoietin-1 receptor = Angiopoietin-1 receptor (Homo sapiens, UniProt Q02763); test: Inhibition of TIE2
[34] = biological target: Mitogen-activated protein kinase 3 (Homo sapiens, UniProt P27361); test: Inhibition of ERK1
Sequence of Mitogen-activated protein kinase 3 (P27361 whole entry): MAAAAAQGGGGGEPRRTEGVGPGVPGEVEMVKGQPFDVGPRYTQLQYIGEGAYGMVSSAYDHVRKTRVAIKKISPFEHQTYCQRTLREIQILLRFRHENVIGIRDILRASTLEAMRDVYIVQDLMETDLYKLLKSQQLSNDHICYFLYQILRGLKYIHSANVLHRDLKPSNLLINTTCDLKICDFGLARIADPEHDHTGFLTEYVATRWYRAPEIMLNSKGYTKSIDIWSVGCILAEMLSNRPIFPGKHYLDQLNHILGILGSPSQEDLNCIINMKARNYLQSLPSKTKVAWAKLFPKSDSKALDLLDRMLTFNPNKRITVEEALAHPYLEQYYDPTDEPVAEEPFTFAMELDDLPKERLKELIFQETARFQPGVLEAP

SMILES: CN(c1ccc(F)c(NC(=O)c2cccc(OC(C)(C)C#N)c2Cl)c1)c1ccc2nc(NC(=O)C3CC3)sc2n1 [listing 1 of 2 here]
inhibition (Rattus norvegicus [6]): Active

SMILES: CN(c1ccc(F)c(NC(=O)c2cccc(OC(C)(C)C#N)c2Cl)c1)c1ccc2nc(NC(=O)C3CC3)sc2n1.O.O=S(=O)(O)c1ccccc1
solubility thermodynamic [1]: 37 µg/mL
Activity (Rattus norvegicus [8]): Non-toxic
Cmax [9]: 660 ng/mL
MRT [10]: 3.13 h
MRT [11]: 5.26 h
Vd [12]: 5.52 L/kg
bioavailability [13]: 38.4%
AUC(0-t) at 24 h [14]: 5770 ng·h/mL
T/C (HT-29): -70%
clearance [15]: 29.2 mL/min/kg
AUC(0-t) at 24 h [16]: 600 ng·h/mL

SMILES: CN(c1ccc(F)c(NC(=O)c2cccc(OC(C)(C)C#N)c2Cl)c1)c1ccc2nc(NC(=O)C3CC3)sc2n1 [listing 2 of 2 here]
IC50 [17]: > 10000 nM
solubility thermodynamic [1]: 18 µg/mL
IC50 [18]: 43 nM
microsomal CLint at 1 µM [7]: 32 µL/min/mg
IC50 [19]: 1000 nM
IC50 (Aurora kinase B): 4000 nM
IC50 [20]: 91 nM
IC50 [21]: 1200 nM
IC50 [22]: 23 nM
IC50 [23]: > 10000 nM
IC50 [24]: 130 nM
IC50 [25]: 430 nM
IC50 [26]: 86 nM
IC50 [27]: > 10000 nM
microsomal CLint at 1 µM [5]: 25 µL/min/mg
IC50 [28]: > 10000 nM
IC50 [29]: > 10000 nM
IC50 [30]: 8100 nM
IC50 [31]: 3700 nM
IC50 [32]: > 10000 nM
IC50 [33]: > 10000 nM
IC50 (Insulin receptor): > 10000 nM
IC50 (Angiopoietin-1 receptor): 840 nM
IC50 [34]: > 10000 nM

SMILES: CN(c1ccc(F)c(NC(=O)c2cccc(OC(C)(C)C#N)c2Cl)c1)c1ccc2nc(NC(=O)C3CC3)sc2n1.O=S(=O)(O)O
solubility thermodynamic [1]: 35 µg/mL

SMILES: CN(c1ccc(F)c(NC(=O)c2cccc(OC(C)(C)C#N)c2Cl)c1)c1ccc2nc(NC(=O)C3CC3)sc2n1.Cl
solubility thermodynamic [1]: 31 µg/mL

Further lines, results first:

solubility thermodynamic [1]: 0.91 µg/mL
IC50 [2]: 87 nM
IC50 [3]: 64 nM
IC50 [4]: 15 nM
SMILES: CC(C)(C#N)Oc1cccc(C(=O)Nc2cc(Nc3ccc4nc(NC(=O)C5CC5)sc4n3)ccc2F)c1Cl

IC50 [2]: 88 nM
IC50 [3]: 510 nM
IC50 [4]: 73 nM
SMILES: CC(=O)Nc1nc2cnc(Nc3cc(NC(=O)c4cccc(OC(C)(C)C#N)c4)ccc3C)nc2s1

IC50 [2]: > 500 nM
microsomal CLint at 1 µM [5]: 35 µL/min/mg
IC50 [3]: 410 nM
IC50 [4]: 51 nM
SMILES: CC(=O)Nc1nc2cnc(Nc3cc(NC(=O)c4cccc(CCC#N)c4)ccc3C)nc2s1

IC50 [2]: 150 nM
microsomal CLint at 1 µM [5]: 56 µL/min/mg
IC50 [3]: 300 nM
IC50 [4]: 100 nM
SMILES: CC(=O)Nc1nc2cnc(Nc3cc(NC(=O)c4cccc(CC(C)(C)C#N)c4)ccc3C)nc2s1

IC50 [2]: 120 nM
microsomal CLint at 1 µM [5]: 73 µL/min/mg
IC50 [3]: 340 nM
IC50 [4]: 91 nM
SMILES: CC(=O)Nc1nc2cnc(Nc3cc(NC(=O)c4cccc(C5(C#N)CC5)c4Cl)ccc3C)nc2s1

microsomal CLint at 1 µM [7]: 55 µL/min/mg
IC50 [2]: 22 nM
microsomal CLint at 1 µM [5]: 45 µL/min/mg
SMILES: CC(=O)Nc1nc2ccc(N(C)c3ccc(F)c(NC(=O)c4cccc(OC(C)(C)C#N)c4Cl)c3)nc2s1

microsomal CLint at 1 µM [7]: 25 µL/min/mg
IC50 [2]: 30 nM
microsomal CLint at 1 µM [5]: 22 µL/min/mg
SMILES: CC(=O)Nc1nc2ccc(N(C)c3ccc(F)c(NC(=O)c4cccc(OC(C)(C)C#N)c4)c3)nc2s1
